This is an account of results in the NIST ThermoML archive (doi:10.1016/j.jct.2012.07.006).

What is called mass density is the mass of a sample divided by its volume.

± gives the expanded uncertainty stated by the source.

The conditions of series [1]: 298.15 K; 101.33 kPa; Liquid; Pycnometric method.
The nature of series [2]: excess molar enthalpy (molar enthalpy of mixing); xn = mol fraction of the nth substance listed. The conditions noted are these: 298.15 K, 101 kPa, Liquid, Calvet calorimetry.

Take `CNc1ccccc1` [N-methylaniline]: the mass density in series [1] was 982.237 ± 20 kg/m3.

`CCCCCCCC` [octane]: the mass density in series [1] turned out to be 698.75 ± 20 kg/m3.

As to `CNc1ccccc1` [N-methylaniline] + CCCCCCCCCC, the excess molar enthalpy in series [2] (x1 = 0.1015) is 0.211 ± 0.00454 kcal/mol; in series [2] (x1 = 0.201), 0.34 ± 0.00717 kcal/mol; in series [2] (x1 = 0.2993), 0.413 ± 0.00884 kcal/mol; in series [2] (x1 = 0.3848), 0.448 ± 0.00956 kcal/mol; in series [2] (x1 = 0.487), 0.458 ± 0.0098 kcal/mol; in series [2] (x1 = 0.5963), 0.44 ± 0.00932 kcal/mol. Besides, the excess molar enthalpy in series [2] (x1 = 0.6951) amounted to 0.395 ± 0.00837 kcal/mol; in series [2] (x1 = 0.7934) it was 0.316 ± 0.00669 kcal/mol; in series [2] (x1 = 0.8899), 0.205 ± 0.0043 kcal/mol.

As for `C1CCCCC1` [cyclohexane], in series [1], the mass density is on record as 773.96 ± 20 kg/m3.

Take `Cc1ccccc1` [toluene]: the mass density in series [1] is reported as 862.346 ± 24 kg/m3.

`CNc1ccccc1` [N-methylaniline] + CCCCCCC: the excess molar enthalpy in series [2] (x1 = 0.102) was found to be 0.196 ± 0.0043 kcal/mol; in series [2] (x1 = 0.1982) it was 0.309 ± 0.00669 kcal/mol; in series [2] (x1 = 0.2968) it was 0.368 ± 0.00789 kcal/mol; in series [2] (x1 = 0.3935) it was 0.395 ± 0.00837 kcal/mol; in series [2] (x1 = 0.4983), 0.401 ± 0.0086 kcal/mol; in series [2] (x1 = 0.5982), 0.382 ± 0.00813 kcal/mol. Further, the figures for the excess molar enthalpy in series [2] (x1 = 0.6934), in series [2] (x1 = 0.7941) and in series [2] (x1 = 0.8939) were 0.344 ± 0.00741 kcal/mol, 0.269 ± 0.00574 kcal/mol and 0.162 ± 0.00359 kcal/mol, respectively.

As for `CCCCCCC` [heptane], the mass density in series [1] amounted to 679.71 ± 20 kg/m3.

Turning to `CNc1ccccc1` [N-methylaniline] + C1CCCCC1, the excess molar enthalpy worked out at 0.197 ± 0.0043 kcal/mol in series [2] (x1 = 0.0978); 0.31 ± 0.00669 kcal/mol in series [2] (x1 = 0.1987); 0.364 ± 0.00789 kcal/mol in series [2] (x1 = 0.2934); 0.385 ± 0.00813 kcal/mol in series [2] (x1 = 0.4002); 0.389 ± 0.00837 kcal/mol in series [2] (x1 = 0.4937); 0.368 ± 0.00789 kcal/mol in series [2] (x1 = 0.5934). The excess molar enthalpy was found to be 0.313 ± 0.00669 kcal/mol in series [2] (x1 = 0.6935), 0.232 ± 0.00502 kcal/mol in series [2] (x1 = 0.7953) and 0.136 ± 0.00287 kcal/mol in series [2] (x1 = 0.8938).

Consider `CNc1ccccc1` [N-methylaniline] + Cc1ccccc1, for which the excess molar enthalpy amounted to 0.0535 ± 0.0012 kcal/mol in series [2] (x1 = 0.0991); 0.088 ± 0.00191 kcal/mol in series [2] (x1 = 0.1956); 0.11 ± 0.00239 kcal/mol in series [2] (x1 = 0.2952); 0.12 ± 0.00263 kcal/mol in series [2] (x1 = 0.399); 0.119 ± 0.00263 kcal/mol in series [2] (x1 = 0.4973); 0.111 ± 0.00239 kcal/mol in series [2] (x1 = 0.5922). Further, the excess molar enthalpy in series [2] (x1 = 0.6882) was 0.0925 ± 0.00215 kcal/mol; in series [2] (x1 = 0.7892), 0.0686 ± 0.00143 kcal/mol; in series [2] (x1 = 0.8851) it was 0.0397 ± 0.000956 kcal/mol.

Take `CCCCCCCCCCCCCC` [tetradecane]: the mass density in series [1] turned out to be 759.19 ± 20 kg/m3.

For `CCCCCCCCCCCCCCCC` [hexadecane], the mass density in series [1] turned out to be 769.91 ± 20 kg/m3.

On to `CCCCCCCCCC` [decane], for which the mass density in series [1] was 726.47 ± 20 kg/m3.

On to `CNc1ccccc1` [N-methylaniline] + CCCCCCCC, for which the excess molar enthalpy in series [2] (x1 = 0.1045) is 0.204 ± 0.0043 kcal/mol; in series [2] (x1 = 0.2002), 0.322 ± 0.00693 kcal/mol; in series [2] (x1 = 0.303), 0.388 ± 0.00837 kcal/mol; in series [2] (x1 = 0.4117) it was 0.419 ± 0.00884 kcal/mol; in series [2] (x1 = 0.4956), 0.424 ± 0.00908 kcal/mol; in series [2] (x1 = 0.5965), 0.405 ± 0.0086 kcal/mol. The excess molar enthalpy in series [2] (x1 = 0.6933) was determined as 0.361 ± 0.00765 kcal/mol; in series [2] (x1 = 0.791), 0.285 ± 0.00621 kcal/mol; in series [2] (x1 = 0.889), 0.184 ± 0.00406 kcal/mol.
